Eight molecules from patent US6433023B1, “Compositions having anti-leishmanial activity” (The United States of America as represented by the …, priority 1997, dated 2002) can be followed below.

Structures are written as SMILES. Where two headings read alike, the source gives them in different places.

The experiment concerns Leishmania promastigotes. Put plainly: Testing of agents against Leishmania species in parasite culture medium (anti-leishmanial activity). It is filed as cell-based. To be noted: for IC50: read-out: concentrations effective at the IC50 level; for effectiveness compared with trifluralin: comparison with trifluralin. The source says: […]-3,5-dinitrobenzotrifluoride (compound 1), 4-chloro-3-nitrobenzotrifluoride (compound 4), 3-amino-4-chlorobenzotrifluoride (compound 5), 2-bromo-3,5(bis(trifluoromethyl)aniline (compound 6), 4-methoxy-3-nitrobenzotrifluoride (compound 7), and 2-nitro-4-(trifluoromethyl)thiophenol (compound 8) were obtained from Aldrich Chemical Company and were used to without further purification. Trifluralin was obtained from Reidel de Haen and was used without further purification. 4-chloro-3-nitro-5-sulfonylbenzotrifluoride (compound 2) and 4-chloro-3-nitro-5-carboxybenzotrifluoride (compound 3) were obtained from the Walter Reed Army Institute of Research inventory and were used without further purification. All of the agents were initially dissolved in dimethyl sulfoxide and were then diluted at 100 fold in parasitic culture medium before being tested against Leishmania species. […]

[1] abbreviates: against Leishmania species, agents dissolved in dimethyl sulfoxide, diluted 100 fold in parasitic culture medium.

In the case of `O=C(O)c1cc(C(F)(F)F)cc([N+](=O)[O-])c1Cl` [compound 3, 4-chloro-3-nitro-5-carboxybenzotrifluoride], the IC50 under setting [1] amounted to 120 µM.
Take `O=[N+]([O-])c1cc(C(F)(F)F)cc([N+](=O)[O-])c1Cl` [compound 1, 4-chloro-3,5 dinitrobenzotrifluoride]: the IC50 (Leishmania) was 0.89 µM. Also, the “effectiveness compared with trifluralin” value (against Leishmania species) is “much more effective than trifluralin”.
As to `O=[N+]([O-])c1cc(C(F)(F)F)ccc1S` [compound 8, 2-nitro-4-(trifluoromethyl)thiophenol], under setting [1], the IC50 was found to be 15 µM. Further, the “effectiveness compared with trifluralin” value (against Leishmania species) was “much more effective than trifluralin”.
For `O=[N+]([O-])C1=CC(C(F)(F)F)=CC(=S(=O)=O)C1Cl` (stereo not drawn) [compound 2, 4-chloro-3-nitro-5-sulfonylbenzotrifluoride], in that order: 6.1 µM and “much more effective than trifluralin”.
Consider `Nc1cc(C(F)(F)F)ccc1Cl` [compound 5, 3-amino-4-chlorobenzotrifluoride], for which the IC50 under setting [1] turned out to be 77 µM.
Same read-out and setting: the value for `Nc1cc(C(F)(F)F)cc(C(F)(F)F)c1Br` [compound 6, 2-bromo-3,5-bis(trifluoromethyl)aniline] was 26 µM.
As to `O=[N+]([O-])c1cc(C(F)(F)F)ccc1Cl` [compound 4, 4-chloro-3-nitrobenzotrifluoride], the IC50 under setting [1] came out at 35 µM. The “effectiveness compared with trifluralin” value (against Leishmania species) was “much more effective than trifluralin”.
With `COc1ccc(C(F)(F)F)cc1[N+](=O)[O-]` [compound 7, 4-methoxy-3-nitrobenzotrifluoride], the IC50 under setting [1] worked out at 68 µM.
